Reference: ChEMBL document CHEMBL4382202, “1-(2-Hydroxybenzoyl)-thiosemicarbazides are promising antimicrobial agents targeting d-alanine-d-alanine ligase in bacterio” (Eur J Med Chem, 2018)
Converted amounts (≈) assume the structure as drawn.

Tests used:
Staphylococcus aureus [1] = test: Antibacterial activity against methicillin and linezolid resistant Staphylococcus aureus NRS 119 clinical isolate after 18 to 24 hrs by microdilution assay; type: functional
Staphylococcus aureus [2] = test: Antibacterial activity against hospital-acquired methicillin/ciprofloxacin/moxifloxacin resistant Staphylococcus aureus SA 481 after 18 to 24 hrs by microdilution assay; type: functional
Staphylococcus aureus [3] = test: Antibacterial activity against Staphylococcus aureus ATCC 25923 after 18 to 24 hrs by microdilution assay; type: functional
Staphylococcus aureus [4] = test: Antibacterial activity against community-acquired methicillin and erythromycin resistant Staphylococcus aureus SA 325 after 18 to 24 hrs by microdilution assay; type: functional
[5] = biological target: T1, D-alanine--D-alanine ligase (Enterococcus faecalis (strain ATCC 700802 / V583), UniProt Q47758); test: Inhibition of Enterococcus faecalis JH2-2 C-terminal 6His-tagged DdlB expressed in Escherichia coli LMG194 preincubated for 30 mins followed by substrate addition and measured after 20 mins by Biomol Green reagent assay
T1 sequence (Q47758 whole entry): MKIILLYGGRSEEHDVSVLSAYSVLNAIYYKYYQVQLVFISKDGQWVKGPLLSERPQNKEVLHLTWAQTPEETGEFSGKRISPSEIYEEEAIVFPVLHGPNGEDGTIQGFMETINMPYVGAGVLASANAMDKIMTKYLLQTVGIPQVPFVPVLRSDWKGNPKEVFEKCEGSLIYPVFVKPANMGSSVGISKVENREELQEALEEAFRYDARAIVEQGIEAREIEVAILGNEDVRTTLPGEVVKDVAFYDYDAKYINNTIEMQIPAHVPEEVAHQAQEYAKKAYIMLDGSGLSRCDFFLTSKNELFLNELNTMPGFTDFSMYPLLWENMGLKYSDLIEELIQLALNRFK

Enterococcus faecalis [6] = test: Antibacterial activity against vancomycin-resistant Enterococcus faecalis JH2-2::C1 after 18 to 24 hrs by microdilution assay; type: functional
Staphylococcus aureus [7] = test: Antibacterial activity against hospital-acquired methicillin and vacomycin resistant Staphylococcus aureus VRS-1 after 18 to 24 hrs by microdilution assay; type: functional
Enterococcus faecalis [8] = test: Antibacterial activity against vancomycin-resistant Enterococcus faecalis BM 4390 after 18 to 24 hrs by microdilution assay; type: functional
Staphylococcus aureus [9] = test: Antibacterial activity against methicillin and vancomycin intermediate resistant Staphylococcus aureus MU50 after 18 to 24 hrs by microdilution assay; type: functional
Enterococcus faecalis [10] = test: Antibacterial activity against vancomycin-resistant Enterococcus faecalis BM 4575 clinical isolate after 18 to 24 hrs by microdilution assay; type: functional
Enterococcus faecalis [11] = test: Antibacterial activity against Enterococcus faecalis ATCC 29212 after 18 to 24 hrs by microdilution assay; type: functional

Structure (SMILES)	MIC (Staphylococcus aureus [1]) [µM]	MIC (Staphylococcus aureus [2]) [µM]	MIC (Staphylococcus aureus [3]) [µM]	MIC (Staphylococcus aureus [4]) [µM]	IC50 [5] [nM]	MIC (Enterococcus faecalis [6]) [µM]	MIC (Staphylococcus aureus [7]) [µM]	MIC (Enterococcus faecalis [8]) [µM]	MIC (Staphylococcus aureus [9]) [µM]	MIC (Enterococcus faecalis [10]) [µM]	MIC (Enterococcus faecalis [11]) [µM]
O=C(NNC(=S)Nc1ccc(OCc2ccccc2)cc1)c1ccccc1O	> 100	> 100	100 (≈ 39.3 µg/mL)	> 100	990	> 100	> 100	> 100	> 100	> 100	> 400
O=C(NNC(=S)NCCCN1CCOCC1)c1ccccc1O	> 100	> 100	> 100	> 100		> 100	> 100	> 100	> 100	> 100	> 400
O=C(NNC(=O)c1ccccc1O)Nc1ccc(Cl)c(Cl)c1			> 100								> 100
O=C(NNC(=S)Nc1cccc(Cl)c1)c1ccccc1			> 100								> 400
O=C(NNC(=S)Nc1cccc(I)c1)c1ccccc1O	> 100	> 100	> 100	> 100	730	> 100	> 100	> 100	> 100	> 100	> 400
O=C(NNC(=S)Nc1cccc2ccccc12)c1ccccc1O	> 100	> 100	> 100	> 100	520	> 100	> 100	> 100	> 100	> 100	> 400
O=C(NNC(=S)Nc1ccc(Cl)c(Cl)c1)c1cc2ccccc2cc1O	> 100	> 100	> 100	> 100	560	> 100	> 100	> 100	> 100	> 100	> 400
O=C(NNC(=S)Nc1ccc(Cl)c(Cl)c1)c1ccc(O)cc1			> 100								> 400
COc1ccc(NC(=S)NNC(=O)c2ccccc2O)cc1	> 100	> 100	> 100	> 100	710	> 100	> 100	> 100	> 100	> 100	> 400
O=C(NNC(=S)Nc1ccccc1)c1ccccc1O	> 100	> 100	> 100	> 100	800	> 100	> 100	> 100	> 100	> 100	> 400
O=C(O)c1cn(C2CC2)c2cc(N3CCNCC3)c(F)cc2c1=O [CIPROFLOXACIN]		770 (≈ 255 µg/mL)									
CCCCCNC(=S)NNC(=O)c1ccccc1O	> 100	> 100	> 100	> 100	930	> 100	> 100	> 100	> 100	> 100	> 400
O=C(NNC(=S)Nc1ccc(Cl)c(Cl)c1)c1cccc(O)c1			> 100								> 400
O=C(NNC(=S)Nc1cccnc1)c1ccccc1O	> 100	> 100	50 (≈ 14.4 µg/mL)	> 100		> 100	> 100	> 100	> 100	> 100	50 (≈ 14.4 µg/mL)
O=C(NNC(=S)Nc1ccc([N+](=O)[O-])cc1)c1ccc(O)cc1			> 100								> 400
O=C(NNC(=S)Nc1ccccc1Cl)c1ccccc1			> 100								> 400
O=C(NNC(=S)Nc1ccc(OC(F)(F)F)cc1)c1ccccc1O	100 (≈ 37.1 µg/mL)	> 100	25 (≈ 9.28 µg/mL)	100 (≈ 37.1 µg/mL)	700	100 (≈ 37.1 µg/mL)	> 100	> 100	> 100	> 100	50 (≈ 18.6 µg/mL)
O=C(NNC(=S)Nc1ccc(Cl)cc1Cl)c1ccccc1O	25 (≈ 8.91 µg/mL)	50 (≈ 17.8 µg/mL)	50 (≈ 17.8 µg/mL)	50 (≈ 17.8 µg/mL)	580	50 (≈ 17.8 µg/mL)	25 (≈ 8.91 µg/mL)	25 (≈ 8.91 µg/mL)	50 (≈ 17.8 µg/mL)	25 (≈ 8.91 µg/mL)	50 (≈ 17.8 µg/mL)
O=C(NNC(=S)Nc1ccc(F)cc1)c1ccccc1O	> 100	> 100	> 100	> 100	840	> 100	> 100	> 100	> 100	> 100	200 (≈ 61.1 µg/mL)

Structure (SMILES)	MIC (Staphylococcus aureus [1]) [µM]	MIC (Staphylococcus aureus [2]) [µM]	MIC (Staphylococcus aureus [3]) [µM]	MIC (Staphylococcus aureus [4]) [µM]	IC50 [5] [nM]	MIC (Enterococcus faecalis [6]) [µM]	MIC (Staphylococcus aureus [7]) [µM]	MIC (Enterococcus faecalis [8]) [µM]	MIC (Staphylococcus aureus [9]) [µM]	MIC (Enterococcus faecalis [10]) [µM]	MIC (Enterococcus faecalis [11]) [µM]
O=C(NNC(=S)Nc1ccccc1Cl)c1ccccc1O	100 (≈ 32.2 µg/mL)	100 (≈ 32.2 µg/mL)	> 100	100 (≈ 32.2 µg/mL)	790	> 100	100 (≈ 32.2 µg/mL)	> 100	> 100	> 100	400 (≈ 129 µg/mL)
O=c1c2ccccc2ncn1NC(=S)Nc1ccccc1			> 100								> 400
Nc1ccc(C(=O)NNC(=S)Nc2ccc(Cl)c(Cl)c2)c(O)c1	> 100	> 100	> 100	> 100	990	> 100	> 100	> 100	> 100	> 100	> 400
COc1ccccc1NC(=S)NNC(=O)c1ccccc1O	> 100	> 100	> 100	> 100	550	> 100	> 100	> 100	> 100	> 100	> 400
CN[C@H](CC(C)C)C(=O)N[C@H]1C(=O)N[C@@H](CC(N)=O)C(=O)N[C@H]2C(=O)N[C@H]3C(=O)N[C@H](C(=O)N[C@H](C(=O)O)c4cc(O)cc(O)c4-c4cc3ccc4O)[C@H](O)c3ccc(c(Cl)c3)Oc3cc2cc(c3O[C@@H]2O[C@H](CO)[C@@H](O)[C@H](O)[C@H]2O[C@H]2C[C@](C)(N)[C@H](O)[C@H](C)O2)Oc2ccc(cc2Cl)[C@H]1O [VANCOMYCIN]	0.7 (≈ 1.01 µg/mL)					350 (≈ 507 µg/mL)	> 175	700 (≈ 1010 µg/mL)	5 (≈ 7.25 µg/mL)		
O=C(NNC(=S)Nc1cccc(Cl)c1)c1ccccc1O	> 100	> 100	100 (≈ 32.2 µg/mL)	100 (≈ 32.2 µg/mL)	630	> 100	> 100	> 100	> 100	> 100	400 (≈ 129 µg/mL)
O=C(NNC(=S)Nc1ccccc1F)c1ccccc1O	> 100	> 100	> 100	> 100	970	> 100	> 100	> 100	> 100	> 100	200 (≈ 61.1 µg/mL)
O=C(NNC(=S)Nc1ccccc1F)c1ccccc1			> 100								> 400
CC(=O)c1ccc(NC(=S)NNC(=O)c2ccccc2O)cc1	> 100	> 100	25 (≈ 8.23 µg/mL)	> 100	370	> 100	> 100	> 100	> 100	> 100	50 (≈ 16.5 µg/mL)
O=C(NNC(=S)Nc1ccc(F)cc1)c1ccccc1			> 100								> 400
O=C(NNC(=S)Nc1ccc(Cl)cc1)c1ccccc1O	> 100	> 100	> 100	> 100	830	> 100	> 100	> 100	> 100	> 100	> 400
O=C(NNC(=O)c1ccccc1)Nc1ccc(Cl)c(Cl)c1			> 100								> 100
N#Cc1ccc(NC(=S)NNC(=O)c2ccccc2O)cc1	> 100	> 100	> 100	> 100	510	> 100	> 100	> 100	> 100	> 100	100 (≈ 31.2 µg/mL)
O=C(NNC(=S)Nc1cccc(F)c1)c1ccccc1O	> 100	> 100	> 100	> 100	100	> 100	> 100	> 100	> 100	> 100	200 (≈ 61.1 µg/mL)
O=C(NNC(=S)Nc1cccc(F)c1)c1ccccc1			> 100								> 400
O=C(NNC(=S)Nc1ccc(Cl)cc1)c1ccccc1			> 100								> 400
CC(=O)NC[C@H]1CN(c2ccc(N3CCOCC3)c(F)c2)C(=O)O1 [LINEZOLID]	190 (≈ 64.1 µg/mL)								3 (≈ 1.01 µg/mL)		
O=C(NNC(=S)Nc1ccc(Cl)c(Cl)c1)c1ccccc1			> 100								> 100
